The test system of data set [1] is green peach aphid (Myzus persicae). The data set can be described thus: Myzus persicae spray test (MYZUPE), Chinese cabbage leaf discs. In kind it is in vivo. The conditions noted are these: after 6 days. The procedure: Myzus persicae—Spray Test (MYZUPE)
• Solvent: 78 parts by weight of acetone • 1.5 parts by weight of dimethylformamide • Emulsifier: alkylaryl polyglycol ether
(§1) To produce an appropriate active ingredient preparation, 1 part by weight of active ingredient is dissolved using the specified parts by weight of solvent and made up with water containing an emulsifier concentration of 1000 ppm until the desired concentration is attained. To produce further test concentrations, the preparation is diluted with emulsifier-containing water.
Discs of Chinese cabbage leaves (Brassica pekinensis) infested with all stages of the green peach aphid (Myzus persicae) are sprayed with an active ingredient preparation of the desired concentration.
After 6 days, the efficacy in % is determined. 100% means that all the aphids have been killed; 0% means that none of the aphids have been killed.

Data set [2] can be described thus: log P by HPLC on reversed-phase C18 columns, OECD Guideline 117. In kind it is physicochemical. The conditions noted are these: for logP [a]: pH 2.7; for logP [b]: pH 7.8; for chromatographic logP: reversed-phase C18 HPLC column. The procedure: The log P values were determined in accordance with OECD Guideline 117 (EC Directive 92/69/EEC) by HPLC (high-performance liquid chromatography) using reversed-phase (RP) columns (C18), by the following methods: [a] The LC-MS determination in the acidic range is effected at pH 2.7 with 0.1% aqueous formic acid and acetonitrile (contains 0.1% formic acid) as eluents; linear gradient from 10% acetonitrile to 95% acetonitrile. [b] LC-MS determination in the neutral range is effected at pH 7.8 with 0.001 molar aqueous ammonium hydrogencarbonate solution and acetonitrile as eluents; linear gradient from 10% acetonitrile to 95% acetonitrile. Calibration is effected with unbranched alkan-2-ones (having 3 to 16 carbon atoms) with known log P values (log P values determined on the basis of the retention times by linear interpolation between two successive alkanones).

For data set [3], the system named is adult houseflies (Musca domestica). In words: Musca domestica test (MUSCDO). The conditions noted are these: application rate 100 ppm, after 2 days. Format: in vivo. The procedure:
Musca domestica Test (MUSCDO) • Solvent: dimethyl sulphoxide To prepare an appropriate active ingredient preparation, 10 mg of active ingredient are mixed with 0.5 ml of dimethyl sulphoxide, and the concentrate is diluted with water to the desired concentration. Vessels containing a sponge treated with sugar solution and the active ingredient preparation of the desired concentration are populated with 10 adult houseflies (Musca domestica). After 2 days, the kill in % is determined. 100% means that all of the flies have been killed; 0% means that none of the flies have been killed.

The subject of data set [4] is green peach aphid (Myzus persicae). In words: Myzus persicae spray test (MYZUPE), bell pepper plants. Format: in vivo. The conditions noted are these: after 6 days. The procedure: Myzus Persicae—Spray Test (MYZUPE) • Solvent: 7 parts by weight of dimethylformamide • Emulsifier: alkylaryl polyglycol ether To produce an appropriate active ingredient preparation, 1 part by weight of active ingredient is dissolved using the specified parts by weight of solvent and made up with water containing an emulsifier concentration of 1000 ppm until the desired concentration is attained. To produce further test concentrations, the preparation is diluted with emulsifier-containing water. If the addition of ammonium salts or/and penetrants is required, these are each added in a concentration of 1000 ppm to the preparation solution. Bell pepper plants (Capsicum annuum) severely infested with the green peach aphid (Myzus persicae) are treated by spraying with the active ingredient preparation in the desired concentration. After 6 days, the kill in % is determined. 100% means that all the aphids have been killed; 0% means that no aphids have been killed.

In data set [5] the test system is greenhouse red spider mite (Tetranychus urticae). The data set can be described thus: Tetranychus urticae spray test, OP-resistant (TETRUR), bean leaf discs. Format: in vivo. The note with it: application rate 500 g/ha, after 6 days. The procedure:
Tetranychus urticae—Spray Test, OP-Resistant (TETRUR)
• Solvent: 78.0 parts by weight of acetone • 1.5 parts by weight of dimethylformamide • Emulsifier: alkylaryl polyglycol ether
as §1
Discs of bean leaves (Phaseolus vulgaris) infested with all stages of the greenhouse red spider mite (Tetranychus urticae) are sprayed with an active compound preparation of the desired concentration.
After 6 days, the efficacy in % is determined. 100% means that all the spider mites have been killed; 0% means that none of the spider mites have been killed.

The mark [6] stands for this setting: acidic range, pH 2.7, 0.1% aqueous formic acid/acetonitrile, read-out: log P[a].
The mark [7] stands for this setting: neutral range, pH 7.8, ammonium hydrogencarbonate/acetonitrile, read-out: log P[b].
Setting [8] is: acidic range, NMR peak list table.
Where [9] appears, read: neutral range, NMR peak list table.

Each structure is given as a SMILES string. Where two headings read alike, the source gives them in different places.

In data set [1] (application rate 100 g/ha), `O=c1c2cn(-c3cccnc3)nc2ncn1-c1cc(SCC(F)(F)F)ccc1F` [I-1-9] registered an efficacy in % of 90%. For the same compound, in data set [2] (acidic range, Table 2), the “logP [a]” value was 2.32. Moreover, in data set [2] (neutral range, Table 2), the “logP [b]” value was 2.35.
`Cc1cc(F)c(-n2nnc3nn(-c4cccnc4)cc3c2=O)cc1SCC(F)(F)F` [I-1-3, 3-[2-fluoro-4-methyl-5-(2,2,2-trifluoroethylsulphanyl)phenyl]-6-(3-pyridyl)pyrazolo[3,4-d]triazin-4-one] came in with an efficacy in % in data set [1] (application rate 500 g/ha) of 100%. The chromatographic logP was found to be 3.18 in data set [2] (setting [6]) and 3.14 in data set [2] (setting [7]). Also, the “efficacy (kill in %)” value in data set [3] came to 80%.
For `O=c1c2cn(-c3cccnc3)nc2ncn1-c1cc(SCC(F)(F)F)c(Cl)cc1F` [I-1-13], in data set [4] (application rate 4 ppm), the “efficacy (kill in %)” value stood at 100%. The “logP [a]” value in data set [2] (setting [8]) is 2.70. Besides, in data set [2] (setting [9]), the “logP [b]” value was 2.65.
`O=c1c2cn(-c3cccnc3)nc2ncn1-c1cc(SCC(F)(F)F)c(Cl)cc1Cl` [I-1-14]: in data set [1] (application rate 500 g/ha), the efficacy in % turned out to be 90%. Also, the “logP [a]” value in data set [2] (setting [8]) worked out at 2.91. In data set [2] (setting [9]), the “logP [b]” value is 2.83.
For the compound `Cc1cc(F)c(-n2cnc3nn(-c4cccnc4)cc3c2=O)cc1[S+]([O-])CC(F)(F)F` (stereo not drawn) [I-1-4, 5-{2-Fluoro-4-methyl-5-[(2,2,2-trifluoroethyl)sulphinyl]phenyl}-2-(pyridin-3-yl)-2,5-dihydro-4H-pyrazolo[3,4-d]pyrimidin-4-one], the efficacy in % in data set [1] (application rate 500 g/ha) and in data set [5] was 100% in each case. The chromatographic logP in data set [2] (setting [6]) was determined as 1.79; in data set [2] (setting [7]) it was 1.78.
Consider `Cc1cc(F)c(-n2nnc3nn(-c4cccnc4)cc3c2=O)cc1[S+]([O-])CC(F)(F)F` (stereo not drawn) [I-1-2, 3-[2-Fluoro-4-methyl-5-(2,2,2-trifluoroethylsulphinyl)phenyl]-6-(3-pyridyl)pyrazolo[3,4-d]triazin-4-one], for which the efficacy in % in data set [1] (application rate 500 g/ha) came out at 100%. For the same compound, the chromatographic logP in data set [2] (setting [6]) amounted to 2.22; in data set [2] (setting [7]), 2.19. For the same compound, the “efficacy (kill in %)” value in data set [3] is 80%.
In data set [1] (application rate 500 g/ha), `O=c1c2cn(-c3cccnc3)nc2ncn1-c1cc([S+]([O-])CC(F)(F)F)c(Cl)cc1F` (stereo not drawn) [I-1-18] displayed an efficacy in % of 90%. The “logP [a]” value in data set [2] (setting [8]) worked out at 2.02. Moreover, in data set [2] (setting [9]), the “logP [b]” value is on record as 1.94.
Turning to `CSc1cccc(-n2cnc3nn(-c4cccnc4)cc3c2=O)c1` [I-1-6], in data set [1] (application rate 500 g/ha), the efficacy in % is on record as 90%. Moreover, in data set [2] (acidic range, Table 2), the “logP [a]” value worked out at 1.82. The “logP [b]” value in data set [2] (neutral range, Table 2) is on record as 1.78.
As for `Cc1cc(F)c(-n2cnc3nn(-c4cccnc4)cc3c2=O)cc1SCC(F)(F)F` [I-1-1, 5-{2-Fluoro-4-methyl-5-[(2,2,2-trifluoroethyl)sulphanyl]phenyl}-2-(pyridin-3-yl)-2,5-dihydro-4H-pyrazolo[3,4-d]pyrimidin-4-one], the “efficacy (kill in %)” value in data set [4] (application rate 20 ppm) is on record as 100%. Further, the chromatographic logP in data set [2] (setting [6]) stood at 2.65; in data set [2] (setting [7]), 2.63.
On to `Cc1ccc(-n2cnc3nn(-c4cccnc4)cc3c2=O)cc1[S+]([O-])CC(F)(F)F` (stereo not drawn) [I-1-8], for which the efficacy in % in data set [1] (application rate 500 g/ha) amounted to 90%. In data set [2] (acidic range, Table 2), the “logP [a]” value is given as 1.65. Also, in data set [2] (neutral range, Table 2), the “logP [b]” value amounted to 1.67.
`O=c1c2cn(-c3cccnc3)nc2ncn1-c1cccc([S+]([O-])CC2CC2)c1` (stereo not drawn) [I-1-21] returned an efficacy in % in data set [1] (application rate 500 g/ha) of 90%. The “logP [a]” value in data set [2] (setting [8]) was 1.27. Further, in data set [2] (setting [9]), the “logP [b]” value is 1.32.
For the compound `Cc1cc(F)c(-n2cnc3nn(-c4ccc[n+]([O-])c4)cc3c2=O)cc1[S+]([O-])CC(F)(F)F` (stereo not drawn) [I-1-5, 5-{2-Fluoro-4-methyl-5-[(2,2,2-trifluoroethyl)sulphinyl]phenyl}-2-(1-oxidopyridin-1-ium-3-yl)pyrazolo[3,4-d]pyrimidin-4-one], in data set [1] (application rate 500 g/ha), the efficacy in % was 100%. Besides, the chromatographic logP is 1.39 in data set [2] (setting [6]) and 1.33 in data set [2] (setting [7]).
For the compound `Cc1cc(C)c([S+]([O-])CC(F)(F)F)cc1-n1cnc2nn(-c3cccnc3)cc2c1=O` (stereo not drawn) [I-1-20], the efficacy in % in data set [1] (application rate 20 g/ha) and in data set [5] was 90% in each case. Further, the “logP [a]” value in data set [2] (setting [8]) came out at 1.84. The “logP [b]” value in data set [2] (setting [9]) came to 1.79.
As for `O=c1c2cn(-c3cccnc3)nc2ncn1-c1cccc(SCC2CC2)c1` [I-1-11], in data set [1] (application rate 500 g/ha), the efficacy in % is 100%. In data set [2] (setting [8]), the “logP [a]” value stood at 2.50. Also, the “logP [b]” value in data set [2] (setting [9]) came out at 2.41.
The compound `Cc1cc(C)c(-n2cnc3nn(-c4cccnc4)cc3c2=O)cc1SCC(F)(F)F` [I-1-17] displayed an efficacy in % in data set [1] (application rate 500 g/ha) of 90%. In data set [2] (setting [8]), the “logP [a]” value is on record as 2.75. Besides, in data set [2] (setting [9]), the “logP [b]” value amounted to 2.72.
With `O=c1c2cn(-c3ccc[n+]([O-])c3)nc2ncn1-c1cc([S+]([O-])CC(F)(F)F)c(Cl)cc1Cl` (stereo not drawn) [I-1-15], in data set [1] (application rate 500 g/ha), the efficacy in % was 90%. In addition, the “logP [a]” value in data set [2] (setting [8]) was determined as 1.66. Moreover, the “logP [b]” value in data set [2] (setting [9]) worked out at 1.67.
In the same order, the values of `O=c1c2cn(-c3cccnc3)nc2ncn1-c1cccc(SCC(F)(F)F)c1` [I-1-12] are 90%, 2.25 and 2.18.
`O=c1c2cn(-c3cccnc3)nc2ncn1-c1cc([S+]([O-])CC(F)(F)F)c(Cl)cc1Cl` (stereo not drawn) [I-1-19]: the efficacy in % in data set [1] (application rate 500 g/ha) came out at 90%. The “logP [a]” value in data set [2] (setting [8]) worked out at 2.17. Besides, the “logP [b]” value in data set [2] (setting [9]) worked out at 2.09.
Consider `Cc1cc(F)c(-n2c(C)nc3nn(-c4cccnc4)cc3c2=O)cc1SCC(F)(F)F` [I-1-22], for which the efficacy in % in data set [1] (application rate 500 g/ha) turned out to be 90%. Moreover, the “logP [a]” value in data set [2] (setting [8]) is 2.74. Further, in data set [2] (setting [9]), the “logP [b]” value is listed as 2.69.
The like results for `O=c1c2cn(-c3cccnc3)nc2ncn1-c1cccc([S+]([O-])CC(F)(F)F)c1` (stereo not drawn) [I-1-16] were, in that order, 90%, 1.46 and 1.41.
For `Cc1cc(F)c(NC(=O)c2cn(-c3cccnc3)nc2N)cc1SCC(F)(F)F` [II-1, 3-Amino-N-{2-fluoro-4-methyl-5-[(2,2,2-trifluoroethyl)sulphanyl]phenyl}-1-(pyridin-3-yl)-1H-pyrazole-4-carboxamide], the chromatographic logP in data set [2] (setting [6]) amounted to 2.72; in data set [2] (setting [7]) it was 2.63.
`CSc1ccccc1-n1cnc2nn(-c3cccnc3)cc2c1=O` [I-2-23] displayed an efficacy in % in data set [1] (application rate 500 g/ha) of 90%. For the same compound, the “logP [a]” value in data set [2] (setting [8]) is given as 1.65. Further, the “logP [b]” value in data set [2] (setting [9]) stood at 1.67.
Turning to `O=c1c2cn(-c3cccnc3)nc2ncn1-c1cc([S+]([O-])CC(F)(F)F)ccc1F` (stereo not drawn) [I-1-10], the efficacy in % in data set [1] (application rate 500 g/ha) came out at 100%. Also, in data set [2] (acidic range, Table 2), the “logP [a]” value was 1.53. Besides, the “logP [b]” value in data set [2] (neutral range, Table 2) is given as 1.55.
The like results for `Cc1ccc(-n2cnc3nn(-c4cccnc4)cc3c2=O)cc1SCC(F)(F)F` [I-1-7] were, in that order, 90%, 2.51 and 2.56.

The values are drawn from patent US9920059B2, “Heterocyclic compounds as pesticides” (BAYER CROPSCIENCE AKTIENGESELLSCHAFT, priority 2014, dated 2018).
